Results as given in the supplement of paper PMC13207355.

Columns and labels:
Details in all cases: exposure time: 72 h
E57 [1] = patient-derived glioblastoma stem cells of mesenchymal subtype; assay: surviving fraction (nuclei count normalised to DMSO); higher = more cells surviving (less toxic)
E31 [2] = patient-derived glioblastoma stem cells of proneural subtype; assay: as above
E21 [3] = patient-derived glioblastoma stem cells of mesenchymal subtype; assay: as above
FT3469 [4] = normal neural stem cell line; assay: as above
E34 [5] = patient-derived glioblastoma stem cells of proneural subtype; assay: as above
E28 [6] = patient-derived glioblastoma stem cells of classical subtype; assay: as above
E13 [7] = patient-derived glioblastoma stem cells of classical subtype; assay: as above
E57 [8] = assay: phenotypic distance (Euclidean, principal components) from DMSO controls (arbitrary units); higher = stronger morphological change
E31 [9] = assay: as above
E21 [10] = assay: as above
FT3469 [11] = assay: as above
E34 [12] = assay: as above
E28 [13] = assay: as above
E13 [14] = assay: as above
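Throughout, for phenotypic distance (Euclidean, principal components) from DMSO controls: cell Painting imaging in 384-well plates, CellProfiler features reduced to at least 20 principal components, Euclidean distance versus same-plate DMSO vehicle wells (0.1% v/v), median over six images per well.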
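Throughout, for surviving fraction (nuclei count normalised to DMSO): nuclei counted by high-content imaging of Hoechst-stained cells in laminin-coated 384-well plates, relative to 0.1% DMSO vehicle wells, with staurosporine as cell-death control.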

Nc1ncn([C@@H]2O[C@H](CO)[C@@H](O)[C@H]2O)c(=O)n1 [5-azacytidine]
Details | phenotypic distance | surviving fraction
E13 [7], 4.11523 nM | – | 0.808
E13 [7], 12.34567901 nM | – | 0.874
E13 [7], 37.037 nM | – | 0.939
E13 [7], 111.1111111 nM | – | 0.778
E13 [7], 333.333 nM | – | 0.755
E13 [7], 1000 nM | – | 0.67
E13 [7], 3000 nM | – | 0.358
E13 [14], 4.11523 nM | 0.922 | –
E13 [14], 12.34567901 nM | 0.542 | –
E13 [14], 37.037 nM | 0.817 | –
E13 [14], 111.1111111 nM | 1.58 | –
E13 [14], 333.333 nM | 1.47 | –
E13 [14], 1000 nM | 3 | –
E13 [14], 3000 nM | 6.57 | –
E21 [3], 4.11523 nM | – | 0.745
E21 [3], 12.34567901 nM | – | 0.93
E21 [3], 37.037 nM | – | 0.921
E21 [3], 111.1111111 nM | – | 0.871
E21 [3], 333.333 nM | – | 0.665
E21 [3], 1000 nM | – | 0.6
E21 [3], 3000 nM | – | 0.426
E21 [10], 4.11523 nM | 1.24 | –
E21 [10], 12.34567901 nM | 5.31 | –
E21 [10], 37.037 nM | 1.2 | –
E21 [10], 111.1111111 nM | 1.66 | –
E21 [10], 333.333 nM | 1.85 | –
E21 [10], 1000 nM | 2.19 | –
E21 [10], 3000 nM | 3.53 | –
E28 [6], 4.11523 nM | – | 0.899
E28 [6], 12.34567901 nM | – | 1.22
E28 [6], 37.037 nM | – | 0.711
E28 [6], 111.1111111 nM | – | 0.969
E28 [6], 333.333 nM | – | 0.753
E28 [6], 1000 nM | – | 0.984
E28 [6], 3000 nM | – | 0.497
E28 [13], 4.11523 nM | 0.861 | –
E28 [13], 12.34567901 nM | 1.19 | –
E28 [13], 37.037 nM | 1.09 | –
E28 [13], 111.1111111 nM | 0.941 | –
E28 [13], 333.333 nM | 0.932 | –
E28 [13], 1000 nM | 1.03 | –
E28 [13], 3000 nM | 1.84 | –
E31 [2], 4.11523 nM | – | 0.945
E31 [2], 12.34567901 nM | – | 0.84
E31 [2], 37.037 nM | – | 0.848
E31 [2], 111.1111111 nM | – | 0.9
E31 [2], 333.333 nM | – | 0.718
E31 [2], 1000 nM | – | 0.644
E31 [2], 3000 nM | – | 0.298
E31 [9], 4.11523 nM | 1.21 | –
E31 [9], 12.34567901 nM | 1.33 | –
E31 [9], 37.037 nM | 1.03 | –
E31 [9], 111.1111111 nM | 0.932 | –
E31 [9], 333.333 nM | 1.18 | –
E31 [9], 1000 nM | 1.85 | –
E31 [9], 3000 nM | 3.43 | –
E34 [5], 4.11523 nM | – | 0.97
E34 [5], 12.34567901 nM | – | 1.02
E34 [5], 37.037 nM | – | 1.01
E34 [5], 111.1111111 nM | – | 1.07
E34 [5], 333.333 nM | – | 0.862
E34 [5], 1000 nM | – | 0.731
E34 [5], 3000 nM | – | 0.643
E34 [12], 4.11523 nM | 0.558 | –
E34 [12], 12.34567901 nM | 0.75 | –
E34 [12], 37.037 nM | 1.12 | –
E34 [12], 111.1111111 nM | 0.943 | –
E34 [12], 333.333 nM | 1.52 | –
E34 [12], 1000 nM | 1.39 | –
E34 [12], 3000 nM | 2.19 | –
E57 [1], 4.11523 nM | – | 0.959
E57 [1], 12.34567901 nM | – | 0.904
E57 [1], 37.037 nM | – | 0.961
E57 [1], 111.1111111 nM | – | 0.841
E57 [1], 333.333 nM | – | 0.78
E57 [1], 1000 nM | – | 0.507
E57 [1], 3000 nM | – | 0.287
E57 [8], 4.11523 nM | 0.981 | –
E57 [8], 12.34567901 nM | 1.07 | –
E57 [8], 37.037 nM | 1.13 | –
E57 [8], 111.1111111 nM | 1.59 | –
E57 [8], 333.333 nM | 1.59 | –
E57 [8], 1000 nM | 3.31 | –
E57 [8], 3000 nM | 5.71 | –
FT3469 [4], 4.11523 nM | – | 0.82
FT3469 [4], 12.34567901 nM | – | 0.768
FT3469 [4], 37.037 nM | – | 0.86
FT3469 [4], 111.1111111 nM | – | 0.944
FT3469 [4], 333.333 nM | – | 0.915
FT3469 [4], 1000 nM | – | 0.734
FT3469 [4], 3000 nM | – | 0.665
FT3469 [11], 4.11523 nM | 1.08 | –
FT3469 [11], 12.34567901 nM | 1.06 | –
FT3469 [11], 37.037 nM | 0.921 | –
FT3469 [11], 111.1111111 nM | 0.795 | –
FT3469 [11], 333.333 nM | 0.957 | –
FT3469 [11], 1000 nM | 1.34 | –
FT3469 [11], 3000 nM | 2.03 | –
